Results taken from the supplement of paper PMC10331698.
± gives the standard deviation of the averaged measurements.

Key:
Experiment in all cases: level (log10 ratio to DMSO vehicle control); higher = higher biomarker level / cell amount than vehicle control
[1] = compound: C=CC(=O)OCC(F)(F)C(F)(F)C(F)(F)COC(=O)C=C [1H,1H,5H,5H-Perfluoro-1,5-pentanediol diacrylate]; settings: 6700 nM; in DMSO
Protocol: (§1)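 BioMAP Diversity Plus panel of 12 human primary cell co-culture systems (3C, 4H, LPS, SAg, BT, BF4T, BE3C, CASM3C, HDF3CGF, KF3CT, MyoF, Mphg). Compounds were added 1 h before stimulation and left for 24 h (MyoF 48 h; BT 72 h for soluble read-outs or 6 d for IgG). Biomarkers were read by ELISA, cytotoxicity by SRB, PBMC viability and proliferation by Alamar Blue. Each well value was divided by the mean of 8 DMSO control wells on the same plate and log10 transformed; duplicate blinded samples were tested at 4 concentrations.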

Nonafluoropentanamide = compound: NC(=O)C(F)(F)C(F)(F)C(F)(F)C(F)(F)F [Nonafluoropentanamide]; settings: in DMSO
Protocol: as §1

Octafluoroadipamide = compound: NC(=O)C(F)(F)C(F)(F)C(F)(F)C(F)(F)C(N)=O [Octafluoroadipamide]; settings: in DMSO
Protocol: as §1

[2] = compound: FC(F)(F)C(F)(F)C(F)(F)CC1CO1 [1H,1H-Heptafluorobutyl epoxide]; settings: in DMSO
Protocol: as §1

[3] = compound: COC(=O)C(F)(F)C(F)(F)OC(F)(C(F)(F)F)C(F)(F)OC(F)=C(F)F [Methyl perfluoro(3-(1-ethenyloxypropan-2-yloxy)propanoate)]; settings: in DMSO
Protocol: as §1

[4] = compound: C=C(C)C(=O)OCCC(F)(F)C(F)(F)C(F)(F)C(F)(F)C(F)(F)C(F)(F)F [6:2 Fluorotelomer methacrylate]; settings: in DMSO
Protocol: as §1

[5] = compound: FC(F)(F)C(F)(F)C(F)(F)C(F)(F)C(F)(F)C(F)(F)CC1CO1 [3-(Perfluorohexyl)-1,2-epoxypropane]; settings: in DMSO
Protocol: as §1

[6] = compound: NS(=O)(=O)C(F)(F)C(F)(F)C(F)(F)C(F)(F)C(F)(F)C(F)(F)F [Perfluorohexanesulfonamide]; settings: in DMSO
Protocol: as §1

[7] = compound: NC(=O)C(F)(F)C(F)(F)C(F)(F)C(F)F; settings: in DMSO
Protocol: as §1

[8] = compound: O=S(=O)(O)CCC(F)(F)C(F)(F)C(F)(F)C(F)(F)C(F)(F)C(F)(F)F [6:2 Fluorotelomer sulfonic acid]; settings: in DMSO
Protocol: as §1

[9] = compound: O=S(=O)(O)C(F)(F)C(F)(F)C(F)(F)C(F)(F)C(F)(F)C(F)(F)C(F)(F)C(F)(F)C(F)(F)C(F)(F)F [Sodium perfluorodecanesulfonate]; settings: in DMSO
Protocol: as §1

[10] = compound: FC(F)(F)C(F)(F)CNCC(F)(F)C(F)(F)F [Bis(1H,1H-perfluoropropyl)amine]; settings: in DMSO
Protocol: as §1

Heptafluorobutyl iodide = compound: FC(F)(F)C(F)(F)C(F)(F)CI [Heptafluorobutyl iodide]; settings: in DMSO
Protocol: as §1

[11] = compound: O=S(=O)(Cl)C(F)(F)C(F)(F)C(F)(F)C(F)(F)C(F)(F)C(F)(F)C(F)(F)C(F)(F)F [Perfluoro-1-octanesulfonyl chloride]; settings: in DMSO
Protocol: as §1

[12] = compound: O=C(O)C(F)(F)C(F)(F)C(F)(F)C(F)(F)C(F)(F)C(F)(F)C(F)(F)C(F)(F)C(F)(F)C(F)F [11-H-Perfluoroundecanoic acid]; settings: in DMSO
Protocol: as §1

[13] = compound: O=C(O)C=CC(F)(C(F)(F)F)C(F)(F)F [3-(Perfluoroisopropyl)-2-propenoic acid]; settings: in DMSO
Protocol: as §1

Hexafluoroamylene glycol = compound: OCC(F)(F)C(F)(F)C(F)(F)CO [Hexafluoroamylene glycol]; settings: in DMSO
Protocol: as §1

[14] = compound: O=S(=O)(F)C(F)(F)C(F)(F)C(F)(F)C(F)(F)C(F)(F)C(F)(F)C(F)(F)C(F)(F)F [Perfluorooctanesulfonyl fluoride]; settings: in DMSO
Protocol: as §1

[15] = compound: FC(F)(F)C(F)(F)C(F)(F)C(F)(F)C(F)(F)C(F)(F)C(F)(F)I [1-Iodopentadecafluoroheptane]; settings: in DMSO
Protocol: as §1

CASM3C:IL-6
level (log10) [1]: -0.0735 ± 0.00071
level (log10) (Nonafluoropentanamide; 6700 nM): 0.0185 ± 0.06
level (log10) (Nonafluoropentanamide; 20000 nM): -0.0285 ± 0.021
level (log10) (Nonafluoropentanamide; 60000 nM): 0.015 ± 0.014
level (log10) (Octafluoroadipamide; 6700 nM): -0.0145 ± 0.0064
level (log10) (Octafluoroadipamide; 20000 nM): -0.0185 ± 0.0035
level (log10) (Octafluoroadipamide; 60000 nM): 0 ± 0.051
level (log10) ([2]; 6700 nM): -0.0235 ± 0.022
level (log10) ([2]; 20000 nM): -0.012 ± 0.0099
level (log10) ([2]; 60000 nM): 0.009 ± 0.047
level (log10) ([3]; 6700 nM): -0.018 ± 0.02
level (log10) ([3]; 20000 nM): -0.0065 ± 0.025
level (log10) ([4]; 6700 nM): -0.0405 ± 0.035
level (log10) ([4]; 20000 nM): -0.046 ± 0.0042
level (log10) ([4]; 60000 nM): 0.005 ± 0.0028
level (log10) ([5]; 6700 nM): -0.0375 ± 0.025
level (log10) ([5]; 20000 nM): -0.0335 ± 0.012
level (log10) ([5]; 60000 nM): 0.001 ± 0.089
level (log10) ([6]; 6700 nM): -0.0145 ± 0.013
level (log10) ([6]; 20000 nM): -0.054 ± 0.0099
level (log10) ([6]; 60000 nM): -0.0495 ± 0.044
level (log10) ([7]; 6700 nM): -0.0315 ± 0.0064
level (log10) ([7]; 20000 nM): -0.0165 ± 0.012
level (log10) ([7]; 60000 nM): 0.017 ± 0.05
level (log10) ([8]; 6700 nM): -0.003 ± 0.011
level (log10) ([8]; 20000 nM): -0.014 ± 0.0014
level (log10) ([8]; 60000 nM): 0.006 ± 0.017
level (log10) ([9]; 1500 nM): -0.013 ± 0.018
level (log10) ([9]; 4400 nM): -0.053 ± 0.05
level (log10) ([9]; 13000 nM): 0.055 ± 0.0099
level (log10) ([9]; 40000 nM): 0.108 ± 0.018
level (log10) ([10]; 6700 nM): -0.0335 ± 0.047
level (log10) ([10]; 20000 nM): -0.035 ± 0.02
level (log10) ([10]; 60000 nM): 0.0065 ± 0.023
level (log10) (Heptafluorobutyl iodide; 6700 nM): -0.01 ± 0.011
level (log10) (Heptafluorobutyl iodide; 20000 nM): -0.016 ± 0.0014
level (log10) (Heptafluorobutyl iodide; 60000 nM): 0.009 ± 0.031
level (log10) ([11]; 6700 nM): -0.009 ± 0.03
level (log10) ([11]; 20000 nM): -0.024 ± 0.02
level (log10) ([11]; 60000 nM): 0.015 ± 0.044
level (log10) ([12]; 6700 nM): -0.027 ± 0.014
level (log10) ([12]; 20000 nM): -0.0395 ± 0.03
level (log10) ([13]; 6700 nM): -0.035 ± 0.011
level (log10) ([13]; 20000 nM): -0.0525 ± 0.00071
level (log10) ([13]; 60000 nM): 0.001 ± 0.092
level (log10) (Hexafluoroamylene glycol; 6700 nM): -0.0015 ± 0.015
level (log10) (Hexafluoroamylene glycol; 20000 nM): -0.0155 ± 0.016
level (log10) (Hexafluoroamylene glycol; 60000 nM): 0.028 ± 0.028
level (log10) ([14]; 6700 nM): -0.014 ± 0.02
level (log10) ([14]; 20000 nM): -0.008 ± 0.0071
level (log10) ([14]; 60000 nM): -0.0125 ± 0.061
level (log10) ([15]; 6700 nM): -0.0425 ± 0.026
level (log10) ([15]; 20000 nM): -0.0035 ± 0.053

CASM3C:Serum Amyloid A
level (log10) [1]: -0.038 ± 0.0057
level (log10) (Nonafluoropentanamide; 6700 nM): -0.016 ± 0.018
level (log10) (Nonafluoropentanamide; 20000 nM): -0.018 ± 0.0057
level (log10) (Nonafluoropentanamide; 60000 nM): 0.008 ± 0.013
level (log10) (Octafluoroadipamide; 6700 nM): 0.012 ± 0.014
level (log10) (Octafluoroadipamide; 20000 nM): 0.0085 ± 0.0092
level (log10) (Octafluoroadipamide; 60000 nM): 0.0185 ± 0.028
level (log10) ([2]; 6700 nM): 0.0025 ± 0.012
level (log10) ([2]; 20000 nM): 0.003 ± 0.035
level (log10) ([2]; 60000 nM): 0.032 ± 0.061
level (log10) ([3]; 6700 nM): 0.007 ± 0.011
level (log10) ([3]; 20000 nM): 0.009 ± 0.023
level (log10) ([4]; 6700 nM): -0.032 ± 0.023
level (log10) ([4]; 20000 nM): -0.051 ± 0.02
level (log10) ([4]; 60000 nM): -0.0425 ± 0.023
level (log10) ([5]; 6700 nM): -0.0115 ± 0.042
level (log10) ([5]; 20000 nM): -0.012 ± 0.013
level (log10) ([5]; 60000 nM): 0.031 ± 0.023
level (log10) ([6]; 6700 nM): -0.0055 ± 0.039
level (log10) ([6]; 20000 nM): 0.012 ± 0.018
level (log10) ([6]; 60000 nM): 0.0625 ± 0.018
level (log10) ([7]; 6700 nM): -0.054 ± 0.071
level (log10) ([7]; 20000 nM): -0.0535 ± 0.026
level (log10) ([7]; 60000 nM): -0.003 ± 0.024
level (log10) ([8]; 6700 nM): 0.019 ± 0.014
level (log10) ([8]; 20000 nM): 0.021 ± 0.03
level (log10) ([8]; 60000 nM): 0.017 ± 0.031
level (log10) ([9]; 1500 nM): -0.0545 ± 0.022
level (log10) ([9]; 4400 nM): -0.0135 ± 0.011
level (log10) ([9]; 13000 nM): 0.0365 ± 0.036
level (log10) ([9]; 40000 nM): 0.182 ± 0.028
level (log10) ([10]; 6700 nM): 0.0025 ± 0.019
level (log10) ([10]; 20000 nM): -0.007 ± 0.0057
level (log10) ([10]; 60000 nM): 0.0065 ± 0.032
level (log10) (Heptafluorobutyl iodide; 6700 nM): -0.027 ± 0.0014
level (log10) (Heptafluorobutyl iodide; 20000 nM): 0.0075 ± 0.0021
level (log10) (Heptafluorobutyl iodide; 60000 nM): 0.0035 ± 0.012
level (log10) ([11]; 6700 nM): -0.008 ± 0.011
level (log10) ([11]; 20000 nM): -0.0165 ± 0.005
level (log10) ([11]; 60000 nM): 0.016 ± 0.025
level (log10) ([12]; 6700 nM): 0.0155 ± 0.00071
level (log10) ([12]; 20000 nM): 0.0205 ± 0.036
level (log10) ([13]; 6700 nM): 0.0085 ± 0.005
level (log10) ([13]; 20000 nM): -0.023 ± 0.017
level (log10) ([13]; 60000 nM): 0.026 ± 0.045
level (log10) (Hexafluoroamylene glycol; 6700 nM): 0.016 ± 0.014
level (log10) (Hexafluoroamylene glycol; 20000 nM): -0.0055 ± 0.069
level (log10) (Hexafluoroamylene glycol; 60000 nM): 0.002 ± 0.0014
level (log10) ([14]; 6700 nM): 0.0225 ± 0.0092
level (log10) ([14]; 20000 nM): 0.0245 ± 0.0078
level (log10) ([14]; 60000 nM): 0.0185 ± 0.011
level (log10) ([15]; 6700 nM): -0.035
level (log10) ([15]; 20000 nM): 0.008 ± 0.024
